Measured values: US10988477B2 (Merck Patent GmbH, priority 2018, dated 2021)
pIC50, pKi: −log10 of the molar value.

Legend:
GCN2 kinase = GCN2 kinase (Homo sapiens, UniProt Q9P2K8); test: GCN2 enzyme inhibition assay (Transcreener ADP2 fluorescence polarization); assay type: biochemical; settings: 280 μM ATP
Method in brief: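 Inhibition of 4 nM GCN2 was measured with compound up to 8 μM final, ATP 280 μM and (RS)7 peptide 200 μM over a 1 h, 25 °C reaction. ADP FP readout; IC50 and Ki(app) calculated from percent inhibition.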

[1] = target: intracellular GCN2 (phosphorylation of the GCN2 substrate eIF2α) (Homo sapiens, UniProt Q9P2K8); test: GCN2 cellular inhibition assay (AlphaScreen SureFire P-eIF2α Ser51, borrelidin-treated U2OS cells); assay type: cell-based; settings: biomarker assay, phosphorylated eIF2α Ser51 in borrelidin-treated U2OS cells
Protocol: Compounds can be screened for their ability to inhibit intracellular GCN2 using an AlphaScreen assay (Perkin Elmer) to detect phosphorylation of the GCN2 substrate eIF2α in borrelidin-treated cells. U2OS cells are plated at 5,000 cells per well in 384-well white polystyrene plates (Corning 3570) in McCoy's 5 A media (GIBCO 26600-023) supplemented with 10% foetal bovine serum (SAFC 12103C), Penicillin/Streptomycin solution diluted 1:100 (Sigma P0781), and 2 mM L-glutamine (Sigma G7513), and allowed to adhere overnight at 37° C. in 5% CO2. Compounds are then added to the cell media from a final concentration of 40 μM in 4-fold serial dilutions. Borrelidin (FluoroChem M01440) is immediately added to the wells to a final concentration of 10 μM and the cells are incubated for 1 h at 37° C. in 5% CO2. After 1 h of treatment with borrelidin, the media is removed, and the cells are lysed with lysis buffer (TGR BioSciences TGRLB) at ambient temperature.
An AlphaScreen SureFire P-eIF2α (Ser51) assay kit (Perkin Elmer TGREIF2S) was used to measure levels of eIF2α phosphorylated on Serine 51. Anti-phosphorylated eIF2α Ser51 antibody-linked acceptor beads (TGR BioScience 6760617) are added to the cell homogenate (diluted 1:250 into a mixture of activation (TGR BioScience TGRAB) and reaction buffer (TGR BioScience TGREIF2S) prepared immediately before use). The plate is then incubated for 2 h at ambient temperature in the dark. Anti-eIF2α antibody-linked donor beads (TGR BioScience 6760617) were then added (diluted 1:100 in dilution buffer (TGR BioScience TGRDB) prepared immediately before use). The plate is then incubated overnight at ambient temperature in the dark.
Plates are analyzed on an Alpha Technology-compatible PHERAstar FS plate reader (BMG Labtech Version 1.14) to quantify phosphorylated eIF2α Ser51 levels. The percentage inhibition of phosphorylated eIF2α is calculated by comparison to control wells stimulated with borrelidin alone.

[2] = Enzyme activity for compounds of Formula IV, Ki(app), 25° C.
[3] = compounds of Formula II, 4 nM GCN2 kinase

Sequence of intracellular GCN2 (phosphorylation of the GCN2 substrate eIF2α) (Q9P2K8 whole entry): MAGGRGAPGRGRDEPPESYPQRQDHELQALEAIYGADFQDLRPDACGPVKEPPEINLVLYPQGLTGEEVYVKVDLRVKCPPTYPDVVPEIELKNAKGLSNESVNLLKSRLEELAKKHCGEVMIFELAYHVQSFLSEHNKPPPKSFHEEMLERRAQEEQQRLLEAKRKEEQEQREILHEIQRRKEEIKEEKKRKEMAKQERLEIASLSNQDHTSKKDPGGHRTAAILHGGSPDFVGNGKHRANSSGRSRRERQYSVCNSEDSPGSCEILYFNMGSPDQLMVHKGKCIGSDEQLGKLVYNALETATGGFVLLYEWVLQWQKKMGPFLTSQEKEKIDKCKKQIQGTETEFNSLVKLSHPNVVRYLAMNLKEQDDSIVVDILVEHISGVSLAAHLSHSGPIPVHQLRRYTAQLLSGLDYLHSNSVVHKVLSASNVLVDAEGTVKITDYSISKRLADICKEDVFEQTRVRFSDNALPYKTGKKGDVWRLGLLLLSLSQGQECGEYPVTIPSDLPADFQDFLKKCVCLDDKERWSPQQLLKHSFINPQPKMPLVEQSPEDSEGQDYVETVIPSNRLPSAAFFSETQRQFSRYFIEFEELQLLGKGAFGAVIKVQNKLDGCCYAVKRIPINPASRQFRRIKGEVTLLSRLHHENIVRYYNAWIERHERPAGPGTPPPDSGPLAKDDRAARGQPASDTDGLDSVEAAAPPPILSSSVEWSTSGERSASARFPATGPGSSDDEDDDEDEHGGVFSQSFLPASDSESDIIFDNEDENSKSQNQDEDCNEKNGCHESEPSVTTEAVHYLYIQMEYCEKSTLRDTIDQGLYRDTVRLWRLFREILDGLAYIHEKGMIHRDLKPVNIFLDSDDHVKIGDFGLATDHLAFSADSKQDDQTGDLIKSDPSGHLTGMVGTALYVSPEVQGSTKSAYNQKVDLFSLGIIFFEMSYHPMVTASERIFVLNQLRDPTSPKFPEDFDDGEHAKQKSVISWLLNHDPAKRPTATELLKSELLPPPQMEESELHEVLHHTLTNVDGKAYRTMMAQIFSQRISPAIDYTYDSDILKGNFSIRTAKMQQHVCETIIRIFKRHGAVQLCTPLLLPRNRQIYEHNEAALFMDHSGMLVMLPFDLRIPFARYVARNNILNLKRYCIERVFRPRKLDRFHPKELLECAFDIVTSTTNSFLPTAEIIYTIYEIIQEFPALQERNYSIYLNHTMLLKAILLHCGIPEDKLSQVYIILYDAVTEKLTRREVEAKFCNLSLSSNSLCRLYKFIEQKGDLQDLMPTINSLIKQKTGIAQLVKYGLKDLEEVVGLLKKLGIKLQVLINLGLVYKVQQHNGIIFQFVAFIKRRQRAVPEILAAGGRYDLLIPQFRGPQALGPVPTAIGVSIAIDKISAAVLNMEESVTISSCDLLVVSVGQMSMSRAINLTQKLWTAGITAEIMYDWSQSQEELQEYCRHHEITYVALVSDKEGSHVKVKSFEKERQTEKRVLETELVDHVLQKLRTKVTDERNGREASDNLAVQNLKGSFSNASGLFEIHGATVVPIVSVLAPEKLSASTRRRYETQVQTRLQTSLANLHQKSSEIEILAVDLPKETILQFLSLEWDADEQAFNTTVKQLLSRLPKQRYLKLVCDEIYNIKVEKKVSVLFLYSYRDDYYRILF
Sequence of GCN2 kinase (Q9P2K8 whole entry): as above

SMILES	pKi (GCN2 kinase; [2])	pKi (GCN2 kinase; [3])	pIC50 ([1]; compounds of Formula II)	other results
CC1CN(c2cc(F)cc(-c3cnc4cnc(C(F)(F)F)cn34)n2)C(C)C(c2cn[nH]c2)N1 (stereo not shown) [IV-690, 3-(6-(2,5-Dimethyl-3-(1H-pyrazol-4-yl)piperazin-1-yl)-4-fluoropyridin-2-yl)-6-(trifluoromethyl)imidazo[1,2-a]pyrazine]	> 8.00	–	–	pIC50 ([1]; compounds of Formula IV): 5.30 to 6.30
CC(=O)N1CCN(c2cc(-c3cnc4ccc(C(F)F)nn34)ccn2)CC1 [II-176, 1-(4-(4-(6-(Difluoromethyl)imidazo[1,2-b]pyridazin-3-yl)pyridin-2-yl)piperazin-1-yl)ethanone]	–	6.00 to 8.00	5.30 to 6.30	–
CC1CN(c2cc(-c3cnc4ccc(C(F)F)nn34)ncn2)CC(CNS(C)(=O)=O)C1(F)F (stereo not shown) [II-45, N-((1-(6-(6-(Difluoromethyl)imidazo[1,2-b]pyridazin-3-yl)pyrimidin-4-yl)-4,4-difluoro-5-methylpiperidin-3-yl)methyl)methanesulfonamide]	–	> 8.00	> 6.30	–
FC(F)c1ccc2ncc(-c3cc(C4=CCOCC4)ncn3)n2n1 [II-357, 6-(Difluoromethyl)-3-(6-(3,6-dihydro-2H-pyran-4-yl)pyrimidin-4-yl)imidazo[1,2-b]pyridazine]	–	6.00 to 8.00	< 5.30	–
CS(=O)(=O)NC[C@@H]1CN(c2ccnc(-c3cnc4ccc(C(F)F)nn34)c2)CCO1 [II-110, (S)—N-((4-(2-(6-(Difluoromethyl)imidazo[1,2-b]pyridazin-3-yl)pyridin-4-yl)morpholin-2-yl)methyl)methanesulfonamide]	–	> 8.00	> 6.30	–
NS(=O)(=O)N1CC2OCCN(c3cc(-c4cnc5ccc(C(F)F)nn45)ncn3)C2C1 (stereo not shown) [II-332, 4-(6-(6-(Difluoromethyl)imidazo[1,2-b]pyridazin-3-yl)pyrimidin-4-yl)hexahydropyrrolo[3,4-b][1,4]oxazine-6(2H)-sulfonamide]	–	6.00 to 8.00	< 5.30	–
FC(F)(F)c1cn2c(-c3nccc(N4CCOC(c5cn[nH]c5)C4)n3)cnc2cn1 (single isomer, unassigned) [IV-7, 2-(1H-Pyrazol-4-yl)-4-(2-(6-(trifluoromethyl)imidazo[1,2-a]pyrazin-3-yl)pyrimidin-4-yl)morpholine]	7.00 to 8.00	–	–	pIC50 ([1]; compounds of Formula IV): 5.30 to 6.30
C[C@H]1C[C@H](c2c[nH]nc2F)CN(c2nccc(-c3cnc4cnc(C(F)(F)F)cn34)n2)C1 [IV-754, 3-(2-((3R,5S)-3-(3-fluoro-1H-pyrazol-4-yl)-5-methylpiperidin-1-yl)pyrimidin-4-yl)-6-(trifluoromethyl)imidazo[1,2-a]pyrazine]	–	–	–	pIC50 (GCN2 kinase; compounds of Formula IV, 4 nM GCN2 kinase): 6.00 to 8.00; pIC50 ([1]; compounds of Formula IV): > 6.30
CS(=O)(=O)CCC1CCCN(c2cc(-c3cnc4ccc(C(F)F)nn34)ccn2)C1 (stereo not shown) [II-128, 6-(Difluoromethyl)-3-(2-(3-(2-(methylsulfonyl)ethyl)piperidin-1-yl)pyridin-4-yl)imidazo[1,2-b]pyridazine]	–	6.00 to 8.00	5.30 to 6.30	–
CS(=O)(=O)NC[C@@H]1CN(c2cc(-c3cnc4ccc(C(F)F)nn34)ncn2)C[C@@H](C(F)(F)F)O1 [II-307, N-(((2S,6S)-4-(6-(6-(Difluoromethyl)imidazo[1,2-b]pyridazin-3-yl)pyrimidin-4-yl)-6-(trifluoromethyl)morpholin-2-yl)methyl)methanesulfonamide]	–	6.00 to 8.00	5.30 to 6.30	–
CN1CCN(c2ccnc(-c3cnc4cnc(C(F)F)cn34)n2)CC12CCNCC2 [IV-123, 4-(2-(6-(Difluoromethyl)imidazo[1,2-a]pyrazin-3-yl)pyrimidin-4-yl)-1-methyl-1,4,9-triazaspiro[5.5]undecane]	6.00 to 7.00	–	–	pIC50 ([1]; compounds of Formula IV): < 5.30
O=S(=O)(N[C@H]1CCCN(c2cc(-c3cnc4ccc(C(F)F)nn34)ncn2)C1)C1CNC1 [II-435, (S)—N-(1-(6-(6-(Difluoromethyl)imidazo[1,2-b]pyridazin-3-yl)pyrimidin-4-yl)piperidin-3-yl)azetidine-3-sulfonamide]	–	6.00 to 8.00	< 5.30	–
C[C@H]1CN(c2cc(-c3cnc4ccc(C(F)F)nn34)ncn2)C[C@@H](CNS(N)(=O)=O)C1(F)F [II-316, 1-(((3S,5S)-1-(6-(6-(Difluoromethyl)imidazo[1,2-b]pyridazin-3-yl)pyrimidin-4-yl)-4,4-difluoro-5-methylpiperidin-3-yl)methyl)sulfuric diamide]	–	> 8.00	> 6.30	–
Cc1[nH]ncc1C1CN(c2ccnc(-c3cnc4cnc(C(F)(F)F)cn34)n2)CC(C)N1 (single isomer, unassigned) [IV-458, 3-(4-(3-Methyl-5-(5-methyl-1H-pyrazol-4-yl)piperazin-1-yl)pyrimidin-2-yl)-6-(trifluoromethyl)imidazo[1,2-a]pyrazine]	6.00 to 7.00	–	–	pIC50 ([1]; compounds of Formula IV): < 5.30
O=C(O)[C@H]1CCCN(c2cc(-c3cnc4ccc(C(F)F)nn34)ncn2)C1 [II-505, (S)-1-(6-(6-(Difluoromethyl)imidazo[1,2-b]pyridazin-3-yl)pyrimidin-4-yl)piperidine-3-carboxylic acid]	–	6.00 to 8.00	< 5.30	–
Brc1cn2c(-c3nccc(N4CCCC(c5c[nH]cn5)C4)n3)cnc2cn1 (stereo not shown) [IV-340, 3-(4-(3-(1H-Imidazol-4-yl)piperidin-1-yl)pyrimidin-2-yl)-6-bromoimidazo[1,2-a]pyrazine]	> 8.00	–	–	pIC50 ([1]; compounds of Formula IV): 5.30 to 6.30
CC(=O)N1CCN(c2ccnc(-c3cnc4cnc(-c5ccc(CO)cc5)cn34)n2)CC1 [IV-302, 1-(4-(2-(6-(4-(Hydroxymethyl)phenyl)imidazo[1,2-a]pyrazin-3-yl)pyrimidin-4-yl)piperazin-1-yl)ethan-1-one]	6.00 to 7.00	–	–	–
FC(F)(F)c1cn2c(-c3nccc(N4CCNC(c5cn[nH]c5)C4)n3)cnc2cn1 (single isomer, unassigned) [IV-232, 3-(4-(3-(1H-Pyrazol-4-yl)piperazin-1-yl)pyrimidin-2-yl)-6-(trifluoromethyl)imidazo[1,2-a]pyrazine]	7.00 to 8.00	–	–	–
C[C@H]1CCCCN1c1ccnc(-c2cnc3cnc(C(F)(F)F)cn23)n1 (single isomer, unassigned) [IV-597]	7.00 to 8.00	–	–	–
CC1C(CO)CCCN1c1cc(-c2cnc3ccc(C(F)F)nn23)ncn1 (stereo not shown) [II-554, (1-(6-(6-(Difluoromethyl)imidazo[1,2-b]pyridazin-3-yl)pyrimidin-4-yl)-2-methylpiperidin-3-yl)methanol]	–	6.00 to 8.00	–	–
FC(F)(F)c1cn2c(-c3ccnc(N4CCOC(c5cn[nH]c5)C4)n3)cnc2cn1 (single isomer, unassigned) [IV-186, 2-(1H-Pyrazol-4-yl)-4-(4-(6-(trifluoromethyl)imidazo[1,2-a]pyrazin-3-yl)pyrimidin-2-yl)morpholine]	> 8.00	–	–	–
CS(=O)(=O)CC1CCN(c2ccnc(-c3cnc4cnc(C(F)(F)F)cn34)n2)C1 (stereo not shown) [IV-604, 3-(4-(3-((methylsulfonyl)methyl)pyrrolidin-1-yl)pyrimidin-2-yl)-6-(trifluoromethyl)imidazo[1,2-a]pyrazine]	6.00 to 7.00	–	–	–
CC1CN(c2ccnc(-c3cnc4cnc(C(F)(F)F)cn34)n2)C(C)C(c2c[nH]c(C(F)(F)F)n2)N1 (stereo not shown) [IV-666, 3-(4-(2,5-Dimethyl-3-(2-(trifluoromethyl)-1H-imidazol-4-yl)piperazin-1-yl)pyrimidin-2-yl)-6-(trifluoromethyl)imidazo[1,2-a]pyrazine]	7.00 to 8.00	–	–	–
OCC1CN(c2ccnc(-c3cnc4cnc(C(F)(F)F)cn34)n2)CCO1 (stereo not shown) [IV-446, (4-(2-(6-(Trifluoromethyl)imidazo[1,2-a]pyrazin-3-yl)pyrimidin-4-yl)morpholin-2-yl)methanol]	6.00 to 7.00	–	–	–
